Measured values from patent US10183027B2, “Lanthanide toolbox for multi-modal, non-invasive tumor specific theranostic prodrugs” (priority 2016, dated 2019).

Assays:
Plasmid DNA [1] = experiment: Agarose gel electrophoresis of plasmid DNA with RuEuL / EuL; assay type: biochemical; settings: 20 μM
Experimental: Furthermore, the interaction of photo-activated RuEuL with DNA was examined by agarose gel electrophoresis (FIG. 24). Plasmid DNA (22.5 μg/mL in Tris/EDTA (TE) buffer) was incubated with the compounds (20 μM), irradiated by 488 nm light (dose 50 J m^−2) or not (control) and then subjected to 1% agarose gel electrophoresis. The separated DNA was stained with GelRed Nucleic Acid Stain (BIOTIUM) and imaged using Tanon 1600 Gel Imaging System (Tanon Science & Technology Co., Ltd).

HeLa cells [2] = experiment: Two-photon confocal microscopy of HeLa cells with PtEuL / EuL; assay type: cell-based
Experimental: Near infrared (NIR) excitation has increasingly been used in live cell imaging and photodynamic or photoactivated chemo-therapy because NIR photon (λ=650-900 nm) can penetrate deeper into tissues with pinpoint accuracy and little collateral photodamage. The two-photon photophysical properties of some antenna ligands of lanthanide complexes have been studied previously. The two-photon induced cytotoxicity of the EuL and PtEuL complexes towards HeLa cells after incubation at different dose concentrations (PtEuL: 0, 1, 2, 5, 10 μM; EuL: 0, 10, 20, 50, 100 μM) for 24 hours was studied using two-photon (λex=730 nm) confocal microscopy (FIGS. 30A-30C and FIGS. 33A and 33B). […] This is probably due to the lower cellular uptake rate of EuL because we no Eu emission was observed from the HeLa cells even after incubation in 100 μM of EuL, ceteris paribus.

A549 = experiment: Dark cytotoxicity of Eu(III) complexes on A549 cells; assay type: cell-based
HeLa cells [3] = experiment: Dark and photo cytotoxicity of RuEuL against HeLa cells; assay type: cell-based, human
Experimental: To determine the potential of RuEuL as a photo-controlled prodrug cell cytotoxicity studies were performed on human cervical cancer (HeLa) cells, and EuL as control (FIGS. 25A and 25B). Cells were incubated 6 hours in the dark before irradiation (488 nm, 1 J); dark controls were run in parallel.

Plasmid DNA [4] = experiment: Agarose gel electrophoresis of plasmid DNA after UVA irradiation (PtEuL); assay type: biochemical; settings: 20 μM, UVA light dose 50 J m^−2
Source text: The DNA gel images were obtained using GelRed Nucleic Acid Stain (BIOTIUM).
(§1) Direct binding of PtEuL with DNA in dark were studied by circular dichroism (CD). […] The interaction of photo-activated PtEuL with DNA was examined by agarose gel electrophoresis (FIG. 29B). After UVA irradiation with PtEuL, conversion of the supercoiled conformer of the plasmid DNA to its open-circular conformer, which indicates DNA nicking (single strand break) and linear conformer, which indicates double strand break, is clearly seen.

HeLa = experiment: Dark cytotoxicity of Eu(III) complexes on HeLa cells; assay type: cell-based
Plasmid DNA [5] = experiment: Circular dichroism of plasmid DNA with PtEuL in dark; assay type: binding; settings: 50 μM, 37° C., 12 h
Source text: as §1

HeLa cells [6] = experiment: Confocal microscopy of light-induced cytotoxicity of RuEuL; assay type: cell-based, human; settings: 50 μM RuEuL or 10 μM PtEuL, 6 hours, 7 mW
Source text: The light-induced cytotoxicity of RuEuL towards HeLa cells was also investigated by confocal microscopy (FIG. 26B) with the PtEuL complex tested under identical conditions for comparison. […] In cell culture studies, red Eu(III) emission from RuEuL was observed after 15-min irradiation. (FIG. 26A) The emission intensity increased with longer irradiation time because more excitation energy induced the dissociation of more Ru(II) moieties from the parent molecules, and the resulting EuL units generated stronger light emission. […] PtEuL is photo-activated upon ultraviolet A irradiation (λ=365 nm). However, UVA irradiation could cause severe adverse effects on human cells.

[7] = Photo-induced dissociation of the cisplatin unit in tris buffer monitored by emission; assay type: physicochemical
Experimental: One of the key issues is the photodissociation level of the Pt moiety from the compounds described herein. The triplet states of the chromophores before and after photo-release the drug or upon binding with αvβ3 isoform were measured. Based on the synthetic protocols described herein, La (lanthanum) and Gd (gadolinium) analogs can be synthesized to measure the triplet states of the chromophores as well. The measurements of the triplet states of these chromophores phosphorescence and their phosphorescence lifetime was undertaken at low temperature (77K). The photodissociation kinetics of PtEuL were investigated by monitoring the emission spectrum with different irradiation times of UVA/NIR (light dosage=4 J cm^−2). The plot of responsive and initial emission intensity at 615 nm (^5D0→^7F2) vs time will be fitted in the exponential growth and decay equation to obtain the pseudo-first order rate constant.
The linear light induced dissociation of PtGdL in tris buffer (20 mM Tris base, 50 mM NaCl, pH 7.4) was monitored by determination of the emission intensity of solution of PtGdL in tris buffer with different light dosage of 365 nm UV light. In general, 3 mL of the solution of PtGdL (3 μM in tris buffer) in a 3.5 mL quartz cuvette was irradiated with a 365 nm UV lamp (5 mW) with stirring. The emission spectra of the solution were recorded at different time points (0, 1, 3, 5, 7, 10, 15, 20, 30, 45, 60, 75 and 90 min).
(Ln=Eu or Gd). The solution-state electronic adsorption and emission spectra of all the complexes and the ligand were recorded at 298 K (FIGS. 28A-28D). The EuL complex is the product of PtEuL after photo-dissociation and was used to monitor the photo-dissociation of [Pt—(NH3)2Cl]^+ from PtEuL. […] The photo-dissociation of PtEuL (3 μM in Tris-buffer, pH=7.4, 50 mM NaCl) was monitored by the variation of the Eu emission (λem=615 nm, ^5D0→^7F2) with the irradiation time. […] The pseudo-first order rate constant k was determined to be 0.53 min^−1 under these experimental conditions (FIG. 28D).

[8] = mean ± SD of three independent experiments

SMILES | interaction with DNA (Plasmid DNA [1]) | red emission from treated cells (HeLa cells [2]; identical conditions, up to 100 μM) | toxicity towards A549 (A549; identical conditions) | toxicity towards HeLa cells (HeLa cells [3]; control) | DNA photocleavage activity (Plasmid DNA [4]) | toxicity towards HeLa (HeLa; identical conditions) | concentration at which red emission was observed in the cell (HeLa cells [2]; 24 hours incubation, 30 min intermittent two-photon excitation 730 nm) [µM] | direct binding with DNA in dark (CD) (Plasmid DNA [5]) | IC50 (A549; [8]) [µM] | IC50 (HeLa cells [3]; HeLa, 6 hours in the dark then irradiation (488 nm, 1 J), read-out: light IC50) [µM] | cell damage and red emission on 488 nm laser irradiation (HeLa cells [6]) | pseudo-first order rate constant k (I/I0 @ 615 nm vs. time) ([7]; 3 μM in Tris-buffer pH 7.4, 50 mM NaCl, UVA 365 nm) [min⁻¹] | pseudo-first order rate constant k for the dissociation of the cisplatin unit ([7]; tris buffer pH 7.4, UV 365 nm, 5 mW) [min⁻¹] | IC50 (HeLa; [8]) [µM]
O.O=C([O-])CN1CCN(CC(=O)[O-])CCN(Cc2cc(C#Cc3ccc(NC(=O)c4ccncc4)cc3)ccn2)CCN(CC(=O)[O-])CC1.[Eu+3] [EuL] | does not interact with DNA | no red emission was detected | no toxicity | almost no toxicity | not at all | no toxicity |  |  |  |  |  |  |  | 
O.O=[N+]([O-])[O-].[Eu+3].[NH3+][Pt-2]([NH3+])([Cl])[n+]1ccc(C(=O)Nc2ccc(C#Cc3ccnc(CN4CCN(CC(=O)[O-])CCN(CC(=O)[O-])CCN(CC(=O)[O-])CC4)c3)cc2)cc1 [PtEuL] |  |  |  |  | strong DNA photocleavage activity |  | > 2 | can directly bind to DNA and unwind its helix | 49.5 ± 0.1 | 22.9 | no red emission or cell death | 0.53 | 0.053 | 22.5 ± 0.5
